According to the supplement of paper PMC13380429:

Tests used:
Conditions in all cases: 72 h
Caco-2 [1] = assay: cell viability relative to DMSO; higher = less toxic
Calu-3 [2] = assay: as above
HepG2 [3] = assay: as above
U2OS [4] = assay: as above
Vero E6 [5] = assay: as above
Calu-3 [6] = assay: relative viability EC50 (midpoint between 100% and the lowest measured viability); higher = less toxic
HepG2 [7] = assay: as above
U2OS [8] = assay: as above
Vero E6 [9] = assay: as above
Caco-2 [10] = assay: drug sensitivity score (DSS) for viability; higher = more toxic; extreme values may be limits of the assay
Calu-3 [11] = assay: as above
HepG2 [12] = assay: as above
U2OS [13] = assay: as above
Vero E6 [14] = assay: as above
Caco-2 [15] = assay: relative viability EC50 (midpoint between 100% and the lowest measured viability); higher = less toxic

Row | Compound | cell viability (Caco-2 [1]; 1 nM) [%] | cell viability (Caco-2 [1]; 10 nM) [%] | cell viability (Caco-2 [1]; 100 nM) [%] | cell viability (Caco-2 [1]; 1000 nM) [%] | cell viability (Caco-2 [1]; 10000 nM) [%] | cell viability (Calu-3 [2]; 1 nM) [%] | cell viability (Calu-3 [2]; 10 nM) [%] | cell viability (Calu-3 [2]; 100 nM) [%] | cell viability (Calu-3 [2]; 1000 nM) [%] | cell viability (Calu-3 [2]; 10000 nM) [%] | cell viability (HepG2 [3]; 1 nM) [%] | cell viability (HepG2 [3]; 10 nM) [%] | cell viability (HepG2 [3]; 100 nM) [%] | cell viability (HepG2 [3]; 1000 nM) [%] | cell viability (HepG2 [3]; 10000 nM) [%] | cell viability (U2OS [4]; 1 nM) [%] | cell viability (U2OS [4]; 10 nM) [%] | cell viability (U2OS [4]; 100 nM) [%] | cell viability (U2OS [4]; 1000 nM) [%] | cell viability (U2OS [4]; 10000 nM) [%] | cell viability (Vero E6 [5]; 1 nM) [%] | cell viability (Vero E6 [5]; 10 nM) [%] | cell viability (Vero E6 [5]; 100 nM) [%] | cell viability (Vero E6 [5]; 1000 nM) [%] | cell viability (Vero E6 [5]; 10000 nM) [%] | relative viability EC50 (Calu-3 [6]) [µM] | relative viability EC50 (HepG2 [7]) [µM] | relative viability EC50 (U2OS [8]) [µM] | relative viability EC50 (Vero E6 [9]) [µM] | drug sensitivity score (Caco-2 [10]) | drug sensitivity score (Calu-3 [11]) | drug sensitivity score (HepG2 [12]) | drug sensitivity score (U2OS [13]) | drug sensitivity score (Vero E6 [14]) | relative viability EC50 (Caco-2 [15]) [µM]
1 | CC(=O)Oc1ccc(C(c2ccc(OC(C)=O)cc2)c2ccccn2)cc1 [bisacodyl] | 92.8 | 84.9 | 107 | 80.5 | 60.3 | 111 | 105 | 102 | 99.2 | 88.2 | 98.3 | 99.5 | 104 | 95.1 | 100 | 101 | 102 | 100 | 89.9 | 87.3 | 99.6 | 94.1 | 97.1 | 95.7 | 80.7 | > 10 | > 10 | > 10 | > 10 | 4.4 | 0.1 | 0 | 0.6 | 1 | 
2 | CCCCCCCCCCCCCCCCCCCCCC(=O)O [AGP-103] | 104 | 90.4 | 96.5 | 106 | 99.9 |  |  |  |  |  | 97.6 | 94.8 | 98.5 | 95.5 | 92.7 | 99.8 | 93.9 | 98.3 | 101 | 102 | 105 | 106 | 100 | 97.9 | 99.1 |  | > 10 | > 10 | > 10 | 0 |  | 0 | 0 | 0 | > 10
3 | CCCCCCCCc1ccc(-c2ccc(C(=O)O)cc2)cc1 | 100 | 107 | 81.5 | 98.7 | 97.3 |  |  |  |  |  | 101 | 99.8 | 97.2 | 101 | 97.3 | 99 | 106 | 96.8 | 93 | 95 | 101 | 99.7 | 97.7 | 97.7 | 106 |  | > 10 | > 10 | > 10 | 0 |  | 0 | 0 | 0 | > 10
4 | CC(C)(c1ccc(O)cc1)c1ccc(O)cc1 [bisphenol-A] | 92.2 | 111 | 102 | 97.3 | 88.8 |  |  |  |  |  | 98.7 | 94.4 | 103 | 94.6 | 106 | 101 | 109 | 99.6 | 107 | 102 | 107 | 105 | 99.2 | 98 | 88.6 |  | > 10 | > 10 | > 10 | 0.1 |  | 0 | 0 | 0.1 | > 10
5 | Cc1ccccc1C(=O)c1ccc(Nc2ccc(Br)cc2N)cc1Cl [EO-1428] | 103 | 95.5 | 92.3 | 85.7 | 74 | 93 | 96.6 | 83.4 | 90.8 | 89.5 | 97 | 96 | 98.3 | 85.6 | 108 | 98.5 | 101 | 96.1 | 96.2 | 82.8 | 96.7 | 101 | 93.4 | 80.7 | 92.2 | > 10 | > 10 | > 10 | > 10 | 2.4 | 0 | 0 | 0.7 | 0.7 | 
6 | Cc1cc(Nc2ncnc3ccc(NC4=NC(C)(C)CO4)cc23)ccc1Oc1ccn2ncnc2c1 [tucatinib] | 98.9 | 103 | 99.8 | 92.5 | 52 | 105 | 93.3 | 70.7 | 47.3 | 28.4 | 101 | 96 | 103 | 98.4 | 87.1 | 100 | 104 | 95.3 | 98.2 | 87.9 | 99.4 | 95.8 | 95.1 | 86.9 | 75.6 | 0.191 | > 10 | > 10 | > 10 | 3.8 | 13.7 | 0.2 | 0.1 | 2 | 
7 | O=C(C[C@H]1CC(c2ccc(F)cc2F)=NO1)N1CCOCC1 (racemic) [CPSI-1306-(+/-)] | 93.7 | 105 | 107 | 90.9 | 104 |  |  |  |  |  | 101 | 107 | 96.4 | 95.6 | 104 | 95.7 | 99.3 | 99.1 | 102 | 104 | 95.6 | 97.4 | 93.6 | 95 | 106 |  | > 10 | > 10 | > 10 | 0 |  | 0 | 0 | 0 | > 10
8 | O=C(O)CCCNC(=O)c1cccnc1 [pikamilone] | 99.8 | 98.3 | 98.4 | 95.6 | 99.8 |  |  |  |  |  | 107 | 113 | 99.8 | 110 | 94.6 | 106 | 97.4 | 103 | 99.4 | 104 | 102 | 105 | 102 | 102 | 98.4 |  | > 10 | > 10 | > 10 | 0 |  | 0 | 0 | 0 | > 10
